Laboratory results: US20250179088A9 (ZYMEWORKS BC INC., priority 2020, published 2025)

Key:
TLR7 = biological target: T1, TLR7 (Homo sapiens, UniProt Q9NYK1); assay: Reporter gene assay, HEK-Blue TLR7 reporter cells (SEAP)
T1 sequence (Q9NYK1 27-1049): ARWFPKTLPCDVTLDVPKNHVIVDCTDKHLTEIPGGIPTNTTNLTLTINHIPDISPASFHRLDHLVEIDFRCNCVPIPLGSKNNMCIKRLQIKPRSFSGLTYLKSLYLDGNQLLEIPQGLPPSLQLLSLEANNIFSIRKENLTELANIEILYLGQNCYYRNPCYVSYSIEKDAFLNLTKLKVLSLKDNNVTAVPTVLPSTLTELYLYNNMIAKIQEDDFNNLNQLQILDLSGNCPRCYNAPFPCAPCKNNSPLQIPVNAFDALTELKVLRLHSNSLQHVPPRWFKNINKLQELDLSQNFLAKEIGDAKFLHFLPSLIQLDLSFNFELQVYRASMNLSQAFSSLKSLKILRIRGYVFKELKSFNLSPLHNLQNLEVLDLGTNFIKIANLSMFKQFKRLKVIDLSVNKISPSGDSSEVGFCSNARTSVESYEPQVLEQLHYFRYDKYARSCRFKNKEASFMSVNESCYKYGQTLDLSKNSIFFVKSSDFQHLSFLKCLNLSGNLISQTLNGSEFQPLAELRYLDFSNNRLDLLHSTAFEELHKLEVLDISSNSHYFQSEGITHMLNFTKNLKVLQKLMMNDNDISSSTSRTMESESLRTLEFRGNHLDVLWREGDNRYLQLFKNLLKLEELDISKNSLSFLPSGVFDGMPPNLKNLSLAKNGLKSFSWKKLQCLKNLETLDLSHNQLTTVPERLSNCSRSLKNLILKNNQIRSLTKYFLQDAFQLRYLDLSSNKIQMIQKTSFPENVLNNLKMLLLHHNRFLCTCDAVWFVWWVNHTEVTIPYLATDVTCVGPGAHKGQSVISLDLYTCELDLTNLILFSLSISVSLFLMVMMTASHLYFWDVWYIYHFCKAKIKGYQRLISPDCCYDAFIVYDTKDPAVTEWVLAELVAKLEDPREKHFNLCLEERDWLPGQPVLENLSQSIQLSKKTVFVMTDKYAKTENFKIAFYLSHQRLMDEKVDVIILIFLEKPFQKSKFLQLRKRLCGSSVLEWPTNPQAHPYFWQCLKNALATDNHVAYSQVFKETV
Description: (§1) 3×10^4 HEK-Blue™ TLR7 or 3×10^4 TLR8 reporter cells (InvivoGen, San Diego, CA) were treated with titrated (4-fold) amounts of test compound. […] Cells were incubated overnight at 37° C. and 5% CO2, then absorbance (620 and 655 nm) was read on a Synergy™ H1 microplate reader.

TLR8 = biological target: T2, TLR8 (Homo sapiens, UniProt Q9NR97); assay: Reporter gene assay, HEK-Blue TLR8 reporter cells (SEAP)
T2 sequence (Q9NR97 27-1041): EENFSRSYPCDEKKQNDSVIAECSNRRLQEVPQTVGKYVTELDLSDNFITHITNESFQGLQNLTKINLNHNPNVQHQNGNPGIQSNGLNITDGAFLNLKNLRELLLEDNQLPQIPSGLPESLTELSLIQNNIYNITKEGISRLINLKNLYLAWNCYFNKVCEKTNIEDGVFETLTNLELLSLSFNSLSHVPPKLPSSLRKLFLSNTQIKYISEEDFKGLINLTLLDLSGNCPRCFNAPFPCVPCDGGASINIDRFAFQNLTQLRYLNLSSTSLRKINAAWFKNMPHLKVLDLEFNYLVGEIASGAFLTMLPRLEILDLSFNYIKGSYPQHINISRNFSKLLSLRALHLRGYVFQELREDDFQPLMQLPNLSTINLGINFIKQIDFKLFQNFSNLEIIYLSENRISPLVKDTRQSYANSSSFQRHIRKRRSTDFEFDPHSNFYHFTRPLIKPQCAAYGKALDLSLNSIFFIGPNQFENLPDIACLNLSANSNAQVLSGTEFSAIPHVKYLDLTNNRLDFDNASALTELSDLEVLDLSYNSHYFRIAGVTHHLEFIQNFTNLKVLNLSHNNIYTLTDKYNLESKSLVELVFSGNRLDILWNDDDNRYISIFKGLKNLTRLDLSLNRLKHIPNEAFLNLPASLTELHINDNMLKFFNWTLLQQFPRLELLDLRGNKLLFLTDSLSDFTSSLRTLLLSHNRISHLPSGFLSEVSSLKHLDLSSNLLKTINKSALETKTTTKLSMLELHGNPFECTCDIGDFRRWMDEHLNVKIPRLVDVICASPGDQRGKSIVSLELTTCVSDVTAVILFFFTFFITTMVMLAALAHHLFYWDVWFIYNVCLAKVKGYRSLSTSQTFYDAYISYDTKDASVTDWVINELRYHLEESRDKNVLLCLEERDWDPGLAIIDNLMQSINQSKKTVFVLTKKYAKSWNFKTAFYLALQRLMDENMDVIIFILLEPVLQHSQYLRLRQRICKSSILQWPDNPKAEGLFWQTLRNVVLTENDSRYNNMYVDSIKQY
Description: as §1

PBMCs = assay: PBMC assay, IL-6 release (HTRF); assay type: cell-based; settings: PBMCs from healthy donors, overnight, IL-6 induction by HTRF, average of quadruplicate
Description: Whole peripheral blood was obtained from healthy donors. PBMCs were isolated from peripheral blood by density gradient centrifugation. […] The plasma layer containing PBMCs was poured into a new tube and washed twice. Isolated PBMCs were either used fresh or thawed from previously frozen. 1×10^5 PBMCs were cultured with titrating concentrations of compounds of Formula I overnight followed by assaying for cytokines by homogeneous time resolved fluorescence (HTRF).

| EC50 (TLR7) [nM] | EC50 (TLR8) [nM] | Structure (SMILES) | EC50 (PBMCs) [nM] |
| --- | --- | --- | --- |
| 186 | > 1000 | CCNCc1nc2c(N)nc3ccsc3c2n1Cc1ccc(CN(CC)CC)cc1 [Compound 269, 1-(4-((diethylamino)methyl)benzyl)-2-((ethylamino)methyl)-1H-imidazo[4,5-d]thieno [3,2-b]pyridin-4-amine] | 557 |
| 220 | > 1000 | CCCCc1nc2c(N)nc3ccsc3c2n1Cc1nc(CO)cs1 [Compound 228, (2-((4-amino-2-butyl-1H-imidazo[4,5-d]thieno[3,2-b]pyridin-1-yl)methyl)thiazol-4-yl)methanol] | > 1000 |
| 12 | 380 | CCCCc1nc2c(N)nc3ccsc3c2n1CCCCCN(CC)CC [Compound 175, 2-butyl-1-(5-(diethylamino)pentyl)-1H-imidazo[4,5-d]thieno[3,2-b]pyridin-4-amine] | 99 |
| 420 | > 1000 | CCCCc1nc2c(N)nc3ccsc3c2n1Cc1ncc(CNCC(C)(C)O)s1 [Compound 238, 1-(((2-((4-amino-2-butyl-1H-imidazo[4,5-d]thieno[3,2-b]pyridin-1-yl)methyl)thiazol-5-yl)methyl)amino)-2-methylpropan-2-ol] | > 1000 |
| > 1000 | > 1000 | CCCCc1nc2c(N)nc3ccsc3c2n1Cc1ccccc1CNCc1ccc(CO)cc1 [Compound 224, (4-(((2-((4-amino-2-butyl-1H-imidazo[4,5-d]thieno[3,2-b]pyridin-1-yl)methyl)benzyl)amino)methyl)phenyl)methanol] | > 1000 |
| > 1000 | > 1000 | CCNCc1nc2c(N)nc3ccsc3c2n1Cc1ccc(CN2CCNCC2)cc1 [Compound 268, 2-((ethylamino)methyl)-1-(4-(piperazin-1-ylmethyl)benzyl)-1H-imidazo[4,5-d]thieno [3,2-b]pyridin-4-amine] | > 1000 |
| > 1000 | > 1000 | CCCCc1nc2c(N)nc3ccsc3c2n1Cc1ccc(C=O)cc1 [Compound 164, 4-((4-amino-2-butyl-1H-imidazo[4,5-d]thieno[3,2-b]pyridin-1-yl)methyl)benzaldehyde] | > 1000 |
| 290 | 120 | CCCCc1nc2c(N)nc3ccsc3c2n1Cc1cccc(CNCCCCCO)c1 [Compound 203, 5-((3-((4-amino-2-butyl-1H-imidazo[4,5-d]thieno[3,2-b]pyridin-1-yl)methyl)benzyl)amino)pentan-1-ol] | 160 |
| 550 | > 1000 | CCCCc1nc2c(N)nc3ccsc3c2n1Cc1cccc(CN2CCN(CCN3CCOCC3)CC2)c1 [Compound 200, 2-butyl-1-(3-((4-(2-morpholinoethyl)piperazin-1-yl)methyl)benzyl)-1H-imidazo[4,5-d]thieno[3,2-b]pyridin-4-amine] | > 1000 |
| 110 | 190 | CCCCc1nc2c(N)nc3ccsc3c2n1Cc1cccc(CNCC(C)(C)O)c1 [Compound 205, 1-((3-((4-amino-2-butyl-1H-imidazo[4,5-d]thieno[3,2-b]pyridin-1-yl)methyl)benzyl)amino)-2-methylpropan-2-ol] | 160 |
| > 1000 | > 1000 | CCCCc1nc2c(N)nc3ccsc3c2n1Cc1cccc(CN2CCN(C(=O)OC(C)(C)C)CC2)c1 [Compound 196, tert-butyl 4-(3-((4-amino-2-butyl-1H-imidazo[4,5-d]thieno[3,2-b]pyridin-1-yl)methyl)benzyl)piperazine-1-carboxylate] | > 1000 |
| 83 | > 1000 | CCCCc1nc2c(N)nc3ccsc3c2n1Cc1ccc(CNCC2CCN(C(=O)OC(C)(C)C)CC2)cc1 [Compound 264, tert-butyl 4-(((4-((4-amino-2-butyl-1H-imidazo[4,5-d]thieno[3,2-b]pyridin-1-yl)methyl)benzyl)amino)methyl)piperidine-1-carboxylate] | 153 |
| 330 | 950 | CCCCc1nc2c(N)nc3ccsc3c2n1Cc1cccc(CNCC(C)(C)N2CCOCC2)c1 [Compound 202, 2-butyl-1-(3-(((2-methyl-2-morpholinopropyl)amino)methyl)benzyl)-1H-imidazo[4,5-d]thieno[3,2-b]pyridin-4-amine] | 750 |
| > 1000 | > 1000 | CCCCc1nc2c(N)nc3ccsc3c2n1CCCCCN=[N+]=[N-] [Compound 173, 1-(5-azidopentyl)-2-butyl-1H-imidazo[4,5-d]thieno[3,2-b]pyridin-4-amine] | > 1000 |
| 34 | > 1000 | CCCCc1nc2c(N)nc3ccsc3c2n1CCCCCNCc1cc[nH]c1 [Compound 183, 1-(5-(((1H-pyrrol-3-yl)methyl)amino)pentyl)-2-butyl-1H-imidazo[4,5-d]thieno[3,2-b]pyridin-4-amine] | > 1000 |
| 95 | > 1000 | CCCCc1nc2c(N)nc3ccsc3c2n1Cc1ccc(CNC2CCCN(C(=O)OC(C)(C)C)C2)cc1 (stereo not drawn) [Compound 262, tert-butyl 3-((4-((4-amino-2-butyl-1H-imidazo[4,5-d]thieno[3,2-b]pyridin-1-yl)methyl)benzyl)amino)piperidine-1-carboxylate] | > 1000 |
| > 1000 | > 1000 | CCCCc1nc2c(N)nc3ccsc3c2n1Cc1ccccc1CNCCCCCO [Compound 223] | > 1000 |
| 280 | > 1000 | CCCCc1nc2c(N)nc3ccsc3c2n1Cc1cccc(CNN)c1 [Compound 206, 2-butyl-1-(3-(hydrazineylmethyl)benzyl)-1H-imidazo[4,5-d]thieno[3,2-b]pyridin-4-amine] | > 1000 |
| 37 | > 1000 | CCCCc1nc2c(N)nc3ccsc3c2n1CCCCCNCCCCCO [Compound 178, 5-((5-(4-amino-2-butyl-1H-imidazo[4,5-d]thieno[3,2-b]pyridin-1-yl)pentyl)amino) pentan-1-ol] | > 1000 |
| > 1000 | > 1000 | CCCCc1nc2c(N)nc3ccsc3c2n1Cc1ccccc1CN(CC)CC [Compound 221, 2-butyl-1-(2-((diethylamino)methyl)benzyl)-1H-imidazo[4,5-d]thieno[3,2-b]pyridin-4-amine] | > 1000 |
| 63 | > 1000 | CCCCc1nc2c(N)nc3ccsc3c2n1Cc1cccc(CN2CCNCC2)c1 [Compound 214, 2-butyl-1-(3-(piperazin-1-ylmethyl)benzyl)-1H-imidazo[4,5-d]thieno[3,2-b]pyridin-4-amine] | 750 |
